SMILES: CC(=O)NC1CCSC1=O (stereo not given)
- solubility (mole fraction) (in 2-butoxyethanol, 278.15 K): 0.0606
- solubility (mole fraction) (in 2-butoxyethanol, 283.15 K): 0.0701
- solubility (mole fraction) (in 2-butoxyethanol, 288.15 K): 0.0776
- solubility (mole fraction) (in 2-butoxyethanol, 293.15 K): 0.0895
- solubility (mole fraction) (in 2-butoxyethanol, 298.15 K): 0.102
- solubility (mole fraction) (in 2-butoxyethanol, 303.15 K): 0.116
- solubility (mole fraction) (in 2-butoxyethanol, 308.15 K): 0.132
- solubility (mole fraction) (in 2-butoxyethanol, 313.15 K): 0.15
- solubility (mole fraction) (in 2-butoxyethanol, 318.15 K): 0.175
- solubility (mole fraction) (in 2-butoxyethanol, 323.15 K): 0.199
- solubility (mole fraction) (in 2-ethoxyethanol, 278.15 K): 0.0952
- solubility (mole fraction) (in 2-ethoxyethanol, 283.15 K): 0.108
- solubility (mole fraction) (in 2-ethoxyethanol, 288.15 K): 0.121
- solubility (mole fraction) (in 2-ethoxyethanol, 293.15 K): 0.141
- solubility (mole fraction) (in 2-ethoxyethanol, 298.15 K): 0.158
- solubility (mole fraction) (in 2-ethoxyethanol, 303.15 K): 0.176
- solubility (mole fraction) (in 2-ethoxyethanol, 308.15 K): 0.199
- solubility (mole fraction) (in 2-ethoxyethanol, 313.15 K): 0.223
- solubility (mole fraction) (in 2-ethoxyethanol, 318.15 K): 0.248
- solubility (mole fraction) (in 2-ethoxyethanol, 323.15 K): 0.278
- solubility (mole fraction) (in 2-methoxyethanol, 278.15 K): 0.132
- solubility (mole fraction) (in 2-methoxyethanol, 283.15 K): 0.15
- solubility (mole fraction) (in 2-methoxyethanol, 288.15 K): 0.169
- solubility (mole fraction) (in 2-methoxyethanol, 293.15 K): 0.189
- solubility (mole fraction) (in 2-methoxyethanol, 298.15 K): 0.21
- solubility (mole fraction) (in 2-methoxyethanol, 303.15 K): 0.233
- solubility (mole fraction) (in 2-methoxyethanol, 308.15 K): 0.255
- solubility (mole fraction) (in 2-methoxyethanol, 313.15 K): 0.279
- solubility (mole fraction) (in 2-methoxyethanol, 318.15 K): 0.31
- solubility (mole fraction) (in 2-methoxyethanol, 323.15 K): 0.344
- solubility (mole fraction) (in 2-propoxyethanol, 278.15 K): 0.0753
- solubility (mole fraction) (in 2-propoxyethanol, 283.15 K): 0.0874
- solubility (mole fraction) (in 2-propoxyethanol, 288.15 K): 0.0976
- solubility (mole fraction) (in 2-propoxyethanol, 293.15 K): 0.11
- solubility (mole fraction) (in 2-propoxyethanol, 298.15 K): 0.123
- solubility (mole fraction) (in 2-propoxyethanol, 303.15 K): 0.138
- solubility (mole fraction) (in 2-propoxyethanol, 308.15 K): 0.158
- solubility (mole fraction) (in 2-propoxyethanol, 313.15 K): 0.179
- solubility (mole fraction) (in 2-propoxyethanol, 318.15 K): 0.203
- solubility (mole fraction) (in 2-propoxyethanol, 323.15 K): 0.23
- solubility (mole fraction) (in ethanol, 278.15 K): 0.0355
- solubility (mole fraction) (in ethanol, 283.15 K): 0.0439
- solubility (mole fraction) (in ethanol, 288.15 K): 0.055
- solubility (mole fraction) (in ethanol, 293.15 K): 0.0699
- solubility (mole fraction) (in ethanol, 298.15 K): 0.0866
- solubility (mole fraction) (in ethanol, 303.15 K): 0.107
- solubility (mole fraction) (in ethanol, 308.15 K): 0.132
- solubility (mole fraction) (in ethanol, 313.15 K): 0.164
- solubility (mole fraction) (in ethanol, 318.15 K): 0.201
- solubility (mole fraction) (in ethanol, 323.15 K): 0.243
- solubility (mole fraction) (in ethyl acetate, 278.15 K): 0.0168
- solubility (mole fraction) (in ethyl acetate, 283.15 K): 0.0199
- solubility (mole fraction) (in ethyl acetate, 288.15 K): 0.0235
- solubility (mole fraction) (in ethyl acetate, 293.15 K): 0.0283
- solubility (mole fraction) (in ethyl acetate, 298.15 K): 0.0325
- solubility (mole fraction) (in ethyl acetate, 303.15 K): 0.0388
- solubility (mole fraction) (in ethyl acetate, 308.15 K): 0.0455
- solubility (mole fraction) (in ethyl acetate, 313.15 K): 0.0546
- solubility (mole fraction) (in ethyl acetate, 318.15 K): 0.0649
- solubility (mole fraction) (in ethyl acetate, 323.15 K): 0.0772
- solubility (mole fraction) (in methanol, 278.15 K): 0.0713
- solubility (mole fraction) (in methanol, 283.15 K): 0.0887
- solubility (mole fraction) (in methanol, 288.15 K): 0.111
- solubility (mole fraction) (in methanol, 293.15 K): 0.137
- solubility (mole fraction) (in methanol, 298.15 K): 0.165
- solubility (mole fraction) (in methanol, 303.15 K): 0.192
- solubility (mole fraction) (in methanol, 308.15 K): 0.222
- solubility (mole fraction) (in methanol, 313.15 K): 0.253
- solubility (mole fraction) (in methanol, 318.15 K): 0.288
- solubility (mole fraction) (in methanol, 323.15 K): 0.321
- solubility (mole fraction) (in methyl acetate, 278.15 K): 0.0229
- solubility (mole fraction) (in methyl acetate, 283.15 K): 0.0271
- solubility (mole fraction) (in methyl acetate, 288.15 K): 0.033
- solubility (mole fraction) (in methyl acetate, 293.15 K): 0.0401
- solubility (mole fraction) (in methyl acetate, 298.15 K): 0.0478
- solubility (mole fraction) (in methyl acetate, 303.15 K): 0.0559
- solubility (mole fraction) (in methyl acetate, 308.15 K): 0.0673
- solubility (mole fraction) (in methyl acetate, 313.15 K): 0.081
- solubility (mole fraction) (in methyl acetate, 318.15 K): 0.0965
- solubility (mole fraction) (in methyl acetate, 323.15 K): 0.119
- solubility (mole fraction) (in n-butanol, 278.15 K): 0.0244
- solubility (mole fraction) (in n-butanol, 283.15 K): 0.0301
- solubility (mole fraction) (in n-butanol, 288.15 K): 0.0388
- solubility (mole fraction) (in n-butanol, 293.15 K): 0.047
- solubility (mole fraction) (in n-butanol, 298.15 K): 0.0574
- solubility (mole fraction) (in n-butanol, 303.15 K): 0.0692
- solubility (mole fraction) (in n-butanol, 308.15 K): 0.0846
- solubility (mole fraction) (in n-butanol, 313.15 K): 0.104
- solubility (mole fraction) (in n-butanol, 318.15 K): 0.128
- solubility (mole fraction) (in n-butanol, 323.15 K): 0.159
- solubility (mole fraction) (in n-butyl acetate, 278.15 K): 0.0119
- solubility (mole fraction) (in n-butyl acetate, 283.15 K): 0.0141
- solubility (mole fraction) (in n-butyl acetate, 288.15 K): 0.0169
- solubility (mole fraction) (in n-butyl acetate, 293.15 K): 0.0194
- solubility (mole fraction) (in n-butyl acetate, 298.15 K): 0.0228
- solubility (mole fraction) (in n-butyl acetate, 303.15 K): 0.0263
- solubility (mole fraction) (in n-butyl acetate, 308.15 K): 0.0307
- solubility (mole fraction) (in n-butyl acetate, 313.15 K): 0.0364
- solubility (mole fraction) (in n-butyl acetate, 318.15 K): 0.0411
- solubility (mole fraction) (in n-butyl acetate, 323.15 K): 0.0496
- solubility (mole fraction) (in n-pentanol, 278.15 K): 0.0232
- solubility (mole fraction) (in n-pentanol, 283.15 K): 0.0294
- solubility (mole fraction) (in n-pentanol, 288.15 K): 0.0362
- solubility (mole fraction) (in n-pentanol, 293.15 K): 0.0429
- solubility (mole fraction) (in n-pentanol, 298.15 K): 0.0532
- solubility (mole fraction) (in n-pentanol, 303.15 K): 0.0646
- solubility (mole fraction) (in n-pentanol, 308.15 K): 0.0769
- solubility (mole fraction) (in n-pentanol, 313.15 K): 0.093
- solubility (mole fraction) (in n-pentanol, 318.15 K): 0.114
- solubility (mole fraction) (in n-pentanol, 323.15 K): 0.14
- solubility (mole fraction) (in n-propanol, 278.15 K): 0.0282
- solubility (mole fraction) (in n-propanol, 283.15 K): 0.0343
- solubility (mole fraction) (in n-propanol, 288.15 K): 0.0456
- solubility (mole fraction) (in n-propanol, 293.15 K): 0.0553
- solubility (mole fraction) (in n-propanol, 298.15 K): 0.0678
- solubility (mole fraction) (in n-propanol, 303.15 K): 0.0839
- solubility (mole fraction) (in n-propanol, 308.15 K): 0.104
- solubility (mole fraction) (in n-propanol, 313.15 K): 0.129
- solubility (mole fraction) (in n-propanol, 318.15 K): 0.159
- solubility (mole fraction) (in n-propanol, 323.15 K): 0.197
- solubility (mole fraction) (in n-propyl acetate, 278.15 K): 0.0131
- solubility (mole fraction) (in n-propyl acetate, 283.15 K): 0.0155
- solubility (mole fraction) (in n-propyl acetate, 288.15 K): 0.0187
- solubility (mole fraction) (in n-propyl acetate, 293.15 K): 0.0217
- solubility (mole fraction) (in n-propyl acetate, 298.15 K): 0.0257
- solubility (mole fraction) (in n-propyl acetate, 303.15 K): 0.0296
- solubility (mole fraction) (in n-propyl acetate, 308.15 K): 0.0351
- solubility (mole fraction) (in n-propyl acetate, 313.15 K): 0.0411
- solubility (mole fraction) (in n-propyl acetate, 318.15 K): 0.0486
- solubility (mole fraction) (in n-propyl acetate, 323.15 K): 0.0575
